In patent US6338843B1, “Biologically active materials” (priority 1997, dated 2002):

Key:
rat red blood cells = experiment: Stability of rat red blood cells incubated in vitro (haemoglobin release, % lysis); type: cell-based; details: rat RBC 2% w/v suspension in PBS; relative to Triton X-100 = 100% lysis
Description: Dextrins of different molecular weight were incubated with isolated rat red blood cells (RBC) and haemoglobin release detected spectrophotometrically. Various dilutions of the test polymers (dextrins) and of the reference polymer polyethyleneimine were made up in PBS and mixed with an equal volume of fresh 2% w/v suspension of rat RBCs. This preparation was centrifuged at 1500×g for 10 min at room temperature. Then, 100 μl of the supernatant was removed and the levels of haemoglobin quantitated spectrophotometrically at […]. The results illustrated in FIG. 1 were expressed as % lysis relative to that of a Triton X-100 control (Sigma) which gave 100% RBC lysis.

L1210 cells = details: 72 h incubation, MTT
Description: L1210 cells were seeded at a density of 1×10^4 cells per well into 96 well ‘v’ bottomed microtiter plates (Costar) in RPMI 1640 tissue culture media (Gibeo) supplemented with 10% Foetal Calf Scrum (FCS) (Gibeo). All incubations were carried out at 37° C. in an atmosphere of 5% CO2.
The cells were then left for 24 h. Prior to being incubated with the polymers the cells were centrifuged at 1000×g for 10 minutes at room temperature. This served to pellet the cells and allow the removal of the media.
Doxorubicin and dextrin doxorubicin were then dissolved in RPMI 1640 containing 10% FCS and filter sterilised through 0.2μ filters (Aerodisk). Following this, the pellet was resuspended in media containing the appropriate concentration of drug or drug conjugate.
The tetrazolium dye MTT was used to assess cell viability. The cells were incubated for 67 h prior to the addition of the MTT. After a further incubation period of 5 h, the cells in suspension were subjected to centrifugation, the media removed and 100 μl of optical grade DMSO (Sigma) was added. The plates were read at 550 mn using a Titerteck plate reader. Results (OD) were expressed as a % of the OD seen in cell cultures containing no polymer.

Compound | red cell lysis (haemoglobin release) (rat red blood cells) | toxicity to L1210 cells in vitro (L1210 cells)
Triton X-100 | caused haemoglobin release | –
COc1cccc2c1C(=O)c1c(O)c3c(c(O)c1C2=O)C[C@@](O)(C(=O)CO)C[C@@H]3O[C@H]1C[C@H](N)[C@H](O)[C@H](C)O1 [doxorubicin] | – | toxic
